Measured values as given in patent US20080255137A1 (Arena Pharmaceuticals, Inc., priority 2004, published 2008).

Experiments:
human 5HT2C receptor = biological target: T1, human 5HT2C receptor (Homo sapiens, UniProt P28335); test: Intracellular IP3 (IP) accumulation assay, 5HT2C; format: cell-based; settings: HEK293 cells transfected with human 5HT2C receptor cDNA
T1 construct: expressed in transfected cells; host or cells: HEK293
T1 sequence (P28335 33-458): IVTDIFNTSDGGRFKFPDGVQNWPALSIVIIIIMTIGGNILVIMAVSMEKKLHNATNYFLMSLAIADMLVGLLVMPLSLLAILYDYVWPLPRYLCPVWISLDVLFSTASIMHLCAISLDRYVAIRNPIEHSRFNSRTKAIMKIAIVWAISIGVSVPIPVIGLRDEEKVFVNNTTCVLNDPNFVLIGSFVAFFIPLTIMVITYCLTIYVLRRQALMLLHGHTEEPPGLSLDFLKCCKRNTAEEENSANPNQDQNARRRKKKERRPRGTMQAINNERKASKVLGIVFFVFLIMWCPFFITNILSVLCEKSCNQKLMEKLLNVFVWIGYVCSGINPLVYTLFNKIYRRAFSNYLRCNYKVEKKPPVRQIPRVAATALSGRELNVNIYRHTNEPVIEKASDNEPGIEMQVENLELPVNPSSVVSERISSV
Procedure: HEK293 cells were transfected in 15 cm sterile dishes with or without (control) 16 ug of human 5HT2C receptor cDNA [for example see, Saltzman, A. G., et al. Biochem. Biophys. Res. Commun. 181, 1469-1478 (1991)] using 25 ul of lipofectamine. Cells were then incubated for 3-4 hours at 37° C./5% CO2 and then transfection media was removed and replaced with 100 ul of DMEM. Cells were then plated onto 100 cm sterile dishes. The next day cells were plated into 96 well PDL microtiter plates at a density of 55K/0.2 mL. Six hours latter, media was exchanged with [^3H]inositol (0.25 uCi/well) in inositol free DMEM and plates were incubated at 37° C./5% CO2 overnight. The next day, wells were aspirated and 200 ul of DMEM containing test compound, 10 uM pargyline, and 10 mM LiCl was added to appropriate wells. Plates were then incubated at 37° C./5% CO2 for three hours followed aspiration and by addition of fresh ice cold stop solution (1M KOH, 19 mM Na-borate, 3.8 mM EDTA) to each well. Plates were kept on ice for 5-10 min and the wells were neutralized by addition of 200 ul of fresh ice cold neutralization solution (7.5% HCl). Plates were then frozen until further processing is desired. The lysate was then transferred into 1.5 mL Eppendorf tubes and 1 mL of chloroform/methanol (1:2) was added/tube. […]

5HT2A receptor = 5HT2A receptor (Homo sapiens, UniProt P28223); test: EC50 against the 5HT2A receptor (selectivity); format: cell-based
Chain of 5HT2A receptor (P28223 whole entry): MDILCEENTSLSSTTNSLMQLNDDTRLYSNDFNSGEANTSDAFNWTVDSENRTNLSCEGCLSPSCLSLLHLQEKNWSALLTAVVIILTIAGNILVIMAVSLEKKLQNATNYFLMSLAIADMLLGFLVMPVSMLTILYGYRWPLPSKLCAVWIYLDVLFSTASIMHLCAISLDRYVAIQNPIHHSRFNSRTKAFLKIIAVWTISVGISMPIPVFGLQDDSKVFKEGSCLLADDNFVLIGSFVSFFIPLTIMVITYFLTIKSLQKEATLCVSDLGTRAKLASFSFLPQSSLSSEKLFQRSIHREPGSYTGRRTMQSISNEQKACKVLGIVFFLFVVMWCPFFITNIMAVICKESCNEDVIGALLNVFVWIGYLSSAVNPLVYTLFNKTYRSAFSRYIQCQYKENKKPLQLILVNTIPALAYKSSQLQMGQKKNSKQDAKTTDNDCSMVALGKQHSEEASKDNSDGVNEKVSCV

5HT2B receptor = 5HT2B receptor (Homo sapiens, UniProt P41595); test: Activity against the 5HT2B receptor (selectivity); format: cell-based
Chain of 5HT2B receptor (P41595 whole entry): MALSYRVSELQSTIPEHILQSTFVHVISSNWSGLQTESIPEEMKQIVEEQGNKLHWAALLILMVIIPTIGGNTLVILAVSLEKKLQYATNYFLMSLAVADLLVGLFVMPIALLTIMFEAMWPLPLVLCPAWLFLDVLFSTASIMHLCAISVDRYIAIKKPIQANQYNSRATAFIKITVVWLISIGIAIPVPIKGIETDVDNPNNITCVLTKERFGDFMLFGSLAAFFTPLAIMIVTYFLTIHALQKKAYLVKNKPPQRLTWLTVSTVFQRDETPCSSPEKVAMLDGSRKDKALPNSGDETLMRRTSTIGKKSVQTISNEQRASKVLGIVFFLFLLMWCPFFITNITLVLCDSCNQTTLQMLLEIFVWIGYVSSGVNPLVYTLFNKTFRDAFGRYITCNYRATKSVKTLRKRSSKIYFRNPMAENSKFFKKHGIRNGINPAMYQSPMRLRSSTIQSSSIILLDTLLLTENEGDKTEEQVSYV

guinea pigs = settings: repeat administration; cited from earlier work

| Structure (SMILES) | EC50 (human 5HT2C receptor) [nM] | EC50 (5HT2A receptor) [nM] | activity against the 5HT2B receptor (5HT2B receptor) | amyloid precursor protein (APPs) secretion (guinea pigs) | levels of Aβ production in vivo (guinea pigs) |
| --- | --- | --- | --- | --- | --- |
| C[C@@H]1CNCCN1c1cc(F)cc(-c2ccsc2)c1 [Compound 1] | 2 |  |  |  |  |
| C[C@@H]1CNCCN1c1cccc(-c2ccccc2)c1F [Compound 10, (R)-1-(2-Fluoro-biphenyl-3-yl)-2-methyl-piperazine] | 5 | ~1700 | essentially inactive |  |  |
| C[C@H](N)Cc1cccc(C(F)(F)F)c1 [DEXNOR, dexnorfenfluramine] |  |  |  | stimulated | reducing |
